According to PubChem BioAssay AID1645868 (Buhrlage Lab, Dana-Farber Cancer Institute and Novartis …, 2021):
Active and inactive are the calls of the source.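 Rule for the calls: active = maximal percent inhibition of the deubiquitinase OTUD3 of at least 30% across the tested doses; inactive = the rest.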

target: OTU domain-containing protein 3 (Homo sapiens) (UniProt Q5T2D3); assay: Validation of screening hits, potency titration, in vitro enzymatic, OTU domain-containing protein 3 DUB inhibitors (AID 1645868); details: purified OTUD3, ubiquitin-rhodamine cleavage fluorescence, 2 h
Sequence (Q5T2D3 whole entry, looked up, the tested form may be a part): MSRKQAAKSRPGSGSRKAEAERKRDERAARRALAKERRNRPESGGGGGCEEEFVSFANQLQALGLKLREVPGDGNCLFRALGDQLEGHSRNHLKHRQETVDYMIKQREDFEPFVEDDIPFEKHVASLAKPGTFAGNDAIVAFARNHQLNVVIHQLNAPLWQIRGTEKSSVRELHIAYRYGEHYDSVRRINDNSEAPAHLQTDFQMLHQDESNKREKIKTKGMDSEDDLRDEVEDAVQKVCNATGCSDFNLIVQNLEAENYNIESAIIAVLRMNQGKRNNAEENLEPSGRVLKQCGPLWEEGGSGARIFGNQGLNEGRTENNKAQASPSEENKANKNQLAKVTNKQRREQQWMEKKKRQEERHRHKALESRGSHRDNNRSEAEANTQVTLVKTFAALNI

SMILES | IC50
O=C(O)c1nccnc1C(=O)N1CCc2ccccc2C1 | > 50 µM (inactive)
O=C(c1nnn(Cc2ccc(Cl)cc2)c1-n1cccc1)N1CCCC1 | > 50 µM (inactive)
CCOC(=O)c1ccc(NC(=O)COc2cccc3c2CCN(CC)C3=O)cc1 | > 50 µM (inactive)
Nc1nc(-c2ccc[nH]2)cs1 | > 50 µM (inactive)
Cc1ccc(Cn2c(=O)n(CCC(=O)NCCc3ccccc3)c(=O)c3ccccc32)cc1 | 18.6 µM
O=C(/C=C/c1ccc(F)cc1)Nc1ccc2c(c1)OCCO2 | > 50 µM (inactive)
CO[C@H]1[C@@H](O)[C@H](C)O[C@H](O[C@H]2[C@H](Oc3cccc4c(O)c5c(=O)oc6ccc(C)c7c(=O)oc(c34)c5c67)O[C@H](C)[C@H](O)[C@@H]2O)[C@@H]1O | > 50 µM (inactive)
Cc1c(C(=O)c2ccccc2)c2ccccn2c1CCc1ccccn1 | > 50 µM (inactive)
O=C(NCc1cccnc1)C1CCN(c2cnc(N3CCCCCC3)nc2)CC1 | > 50 µM (inactive)
O=C(NCc1ccc(F)cc1)N1CCC2(C1)Nc1cccnc1NC2=NCc1ccccc1 (stereo unspecified) | > 50 µM (inactive)
CCOc1ccccc1NC(=O)Cn1c(-c2ccc3c(c2)OCO3)cn(-c2ccc(OC)cc2)c1=O | > 50 µM (inactive)
O=C(O)c1ccc(C2Cc3c([nH]c(=O)[nH]c3=O)O2)cc1 (stereo unspecified) | 26.5 µM
CCn1c(CNc2ccc(Cl)cc2)nnc1SCC(=O)Nc1ccccc1 | > 50 µM (inactive)
CC1=C(c2ccc(Cl)cc2)S(=O)(=O)NC1=NCC(=O)Nc1ccc(F)cc1 | > 50 µM (inactive)
Cc1ccccc1Cc1nc(-c2ccc(=O)[nH]c2)no1 | > 50 µM (inactive)
O=C(COc1cccc2ccc(N3CCC(Cc4ccccc4)CC3)nc12)NCc1ccc(F)cc1 | 30.5 µM
COc1cccc(C(=O)Nc2ccc(-n3cnnn3)cc2)c1 | > 50 µM (inactive)

The next lines start with the values.

IC50 | SMILES
26.5 µM | CCc1cc2cc3c(cc2nc1SCC(=O)Nc1cccc(C(C)=O)c1)OCO3
> 50 µM (inactive) | COc1cnc(CSc2ncccn2)cc1OCC(=O)Nc1cc(C)ccc1C
> 50 µM (inactive) | C/C1=C/C=C/[C@H](C)[C@H](O)[C@@H](C)[C@@H](O)[C@@H](C)[C@H](O)[C@H](C)[C@@H](O)[C@@H](C)/C=C(/C)C(=O)c2c(O)c(C)cc3c2C(=O)C=C(NC1=O)C3=O
> 50 µM (inactive) | COc1ccc(C2C(C(=O)Nc3ccccc3OC)=C(C)Nc3nnnn32)cc1Br (stereo unspecified)
> 50 µM (inactive) | Cc1cc(C)c2nc3c(cc2c1)CN(Cc1ccco1)C(=O)O3
> 50 µM (inactive) | CN(C)c1ccc(C2CC(c3c(O)n(C)c(=O)[nH]c3=O)=Nc3ccccc3S2)cc1 (stereo unspecified)
> 50 µM (inactive) | O=c1[nH]c2ccc(S(=O)(=O)Nc3ccc(O)c4ccccc34)cc2[nH]1
> 50 µM (inactive) | COc1ccccc1N1CCN(C(=O)c2ccc3c(c2)N(Cc2cc(C)ccc2C)C(=O)c2ccccc2S3=O)CC1 (stereo unspecified)
> 50 µM (inactive) | COc1ccc(NC(=O)CN2CCN(c3ccc(C(C)=O)cc3)CC2)cc1S(=O)(=O)N1CCCCC1
